This is an account of results in patent publication US20030073206A1, “Use of xylene monooxygenase for the oxidation of substituted monocyclic aromatic compounds” (priority 2001, published 2003).

The subject of one assay is Sphingomonas strain ASU1. The experiment in a line: Carbon source utilization for strain ASU1 (growth on S12 agar with aromatic compounds). The format is cell-based, Sphingomonas sp. Conditions: compound as sole source of carbon and energy, 28° C. As for the experimental part: S12 agar was used to isolate bacteria from liquid enrichment cultures that grow on 2,6-dimethylnaphthalene (2,6-DMN) and to test isolates for growth with various sources of carbon and energy. S12 agar was prepared by adding 1.5% Noble agar (DIFCO) to S12 medium.
Bacteria that grow on 2,6-DMN were isolated from an enrichment culture. The enrichment culture was established by inoculating 0.1 mL of activated sludge into 10 mL of S12 medium in a 125 mL screw cap Erlenmeyer flask. The activated sludge was obtained from a wastewater treatment facility in Ponco City. The enrichment culture was supplemented with adding yeast extract (0.001 % final concentration) by adding a few flakes of 2,6-DMN directly to the culture medium. The enrichment culture was incubated at 28° C. with reciprocal shaking. The culture was diluted every 4 to 7 d by replacing 9 mL of the culture with the same volume of S12 medium with 0.001% yeast extract and a few additional flakes of 2,6-DMN. Bacteria that utilized 2,6-DMN as a sole source of carbon and energy were isolated by spreading samples of the enrichment culture onto S12 agar. 2,6-DMN was placed on the interior of each Petri dish lid. The Petri dishes were sealed with parafilm and incubated upside down at 28° C. Representative bacterial colonies were then tested for the ability to use 2,6-DMN as a sole source of carbon and energy. […]

Assay [1] deals with T1, xylene monooxygenase (xylM and xylA) cloned from plasmid pWWO (Pseudomonas putida, UniProt P21395).
T1 construct: expressed in transfected cells; host or cells: Escherichia coli TOP10 carrying pCR2.1-TOPO with a 2.4 kb pWWO xylM-xylA PCR fragment from P. putida ATCC 33015 (Clone 6f)
T1 sequence (P21395 whole entry, the tested form may be a part): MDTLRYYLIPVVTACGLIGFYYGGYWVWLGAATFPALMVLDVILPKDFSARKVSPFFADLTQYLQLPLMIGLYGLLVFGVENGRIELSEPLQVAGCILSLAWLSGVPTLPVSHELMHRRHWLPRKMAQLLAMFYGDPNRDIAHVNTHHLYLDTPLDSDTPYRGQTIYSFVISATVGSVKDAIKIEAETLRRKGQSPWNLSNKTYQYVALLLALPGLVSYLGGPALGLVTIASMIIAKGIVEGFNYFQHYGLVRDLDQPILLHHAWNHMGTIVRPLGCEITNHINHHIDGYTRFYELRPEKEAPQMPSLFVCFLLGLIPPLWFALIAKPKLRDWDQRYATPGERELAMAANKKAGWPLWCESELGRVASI
The experiment in a line: Oxidation of p-xylene by Escherichia coli recombinant with cloned pWWO xylene monooxygenase genes (Clone 6f), HPLC of culture supernatant. The format is cell-based. The note with it: Clone 6f culture in M9 medium with p-xylene, 37° C., after 24 h of incubation. As to the method:
(§1) Standard M9 minimal medium were used to assay for oxidation of p-xylene by Escherichia coli with cloned xylene monooxygenase. The M9 medium consisted of 42.3 mM Na2HPO4, 22.1 mM KH2PO4, 8.6 mM NaCl, 18.7 mM NH4Cl, 2 mM MgSO4 and 0.1 mM CaCl2, 0.4% of glycerol was used as the carbon/energy source.
(§2) Analyses were performed on a Hewlett Packard 1100 series with a photo diode UV-visible detector set at 230 nm (primary wavelength), 254 nm (secondary wavelength) and 450 nm as background reference and a LC/MSD-ESI negative ion spectrophotometer. The column was a Hewlett Packard part # 880967.901 Zorbax® SB-C8 (4.6 mm×25 cm), purchased from Agilient Technologies (Palo Alto, Calif.). The column temperature was controlled at 50° C. Mobile phase was […] ammonium acetate (20 mL 1 M ammonium acetate in 1800 mL water (solvent-2=S-2)) and acetonitrile (solvent-1=S-1). […]
(§3) The conversion of p-xylene to 4-hydroxymethylbenzoic acid was monitored by reverse phase HPLC. […]
(§4) Escherichia coli strain TOP10(pCR®2.1 TOPO™) and Escherichia coli clones expressing xylene monooxygenase (Clone 4a and Clone 6f) were inoculated into 500 mL Erlenmyer flasks containing 50 mL of M-9 supplemented with tryptophan (100 μg/mL), glycerol (0.4%), casamino acids (0.4%) and 50 μg/mL ampicillin. […] The sample supernatants were passed through 0.22 μm Acrodisc® CR PFTE filters and analyzed for metabolites of p-xylene by HPLC.

Assay [2] deals with xylene monooxygenase (xylM and xylA) cloned from Sphingomonas strain ASU1. The experiment in a line: Oxidation of p-xylene by Escherichia coli recombinant with cloned ASU1 xylene monooxygenase genes (Clone 4a), HPLC of culture supernatant. The format is cell-based. Conditions: Clone 4a culture in M9 medium with p-xylene, 37° C., after 24 h of incubation. As for the experimental part:
as §1, §2, §3, §4

With `c1ccccc1` [Benzene], the “Growth on Carbon Source” value in the assay with Sphingomonas strain ASU1 is recorded as “unable to utilize”. Turning to `Cc1ccc(C)cc1` [p-xylene], the “p-xylene metabolites detected by HPLC” value in assay [1] and in assay [2] was “Three p-xylene metabolites were detected” in each case. Consider `Cc1ccc2cc(C)ccc2c1` [2,6-dimethylnaphthalene], for which the “Growth on Carbon Source” value with Sphingomonas strain ASU1 (listed as 2,6-DMN) is given as “able to grow”.
